Results on 1 compound are retold here after patent publication US11129807B2, “Methods of treating schizophrenia” (Sunovion Pharmaceuticals Inc., priority 2017, dated 2021).

This assay has as its system patients with an acute exacerbation of schizophrenia (PANSS symptom factors). Briefly: Pooled 6-week placebo-controlled lurasidone studies in acute schizophrenia (PANSS Analysis Study): effect sizes on Marder and transformed PANSS factors. The format is in vivo, human. The settings on record: FIG. 3B, given as r=. On the procedure: Profile of active drug effects on schizophrenia symptom domains. In the left panel of FIG. 3B, shown are lurasidone vs placebo effect sizes (with 95% CI) for change from baseline at week 6 endpoint, based on the Marder PANSS factors. In the right panel of FIG. 3B, the same lurasidone vs placebo effect sizes at endpoint are shown based on the transformed PANSS factors. Drug effects were constructed using a pool of all lurasidone doses (40, 80, 120, or 160 mg/day, total N=993) and excluded active comparators (olanzapine, quetiapine-XR). To examine placebo effects on PANSS factors, placebo treated patients (N=484) were pooled across all studies. Transformed PANSS factors were calculated using the coefficients of the score matrix (see FIG. 4 and Table 4A).
The analysis sample consisted of PANSS data derived from 5 similarly-designed, randomized, double-blind, placebo-controlled, 6-week treatment studies of lurasidone or active comparator for the treatment of patients with an acute exacerbation of schizophrenia. Patients (N=1,710) were included in this analysis if they had received at least one dose of study drug, and had at least one post-baseline PANSS assessment. The analysis pooled all lurasidone doses (40, 80, 120, or 160 mg/d, total N=993), and excluded active comparators (olanzapine, quetiapine-XR). To examine placebo effects on PANSS factors, placebo treated patients (N=484) were pooled across all studies. Herein also referred to as the “PANSS Analysis Study.”
The Uncorrelated PANSS Score Matrix (UPSM) of FIG. 4 and Table 4A was derived using PROC FACTOR procedure of SAS 9.4 with maximum likelihood method (maximum likelihood factor analysis), rotated using the varimax algorithm and compensated for communality greater than 1 using Heywood criteria without a limit on the number of factors produced. A last observation carried forward (LOCF) data imputation method was applied for missing post-baseline PANSS assessments.
The ratings of 30 items in the PANSS data of the PANSS Analysis Study were transformed to transformed PANSS factor scores using a score matrix identified by the maximum likelihood method factor analysis conducted on all change from baseline PANSS data from the 5 short-term clinical trials in the pooled analysis sample. The score matrix, also referred to here as the UPSM, consisted of coefficients multiplying the numerical ratings of each PANSS item differentially for each of the factor scores.
The change-from-baseline PANSS data for all patients and all observations N was a matrix of dimensions (N observations×30 items). To increase precision, the score matrix coefficients were determined using all change-from-baseline observations at Weeks 1-6. The resultant score matrix (30 items×7 factors), or UPSM, was used to transform individual PANSS item change scores (without standardization) to reduce the dimensionality into 7-factor values for each PANSS assessment. FIG. 4 and Table 4A summarize the score matrix (UPSM) weights for individual PANSS items used to generate the transformed PANSS factors.
The weighted score matrix transformation was performed on each of the PANSS item baseline-to-endpoint change scores. This transformation yielded 5 transformed PANSS factors that corresponded to the Marder PANSS factors, with two of the factors (negative symptoms and depression/anxiety) further subdivided into sub-factors (corresponding to the symptom sub-domains of: apathy/avolition and deficit of expression; and depression and anxiety, respectively).
The Validation Study data transformed PANSS factors of Example 1 were used to compare treatment effects of an antipsychotic (lurasidone) on established schizophrenia symptom domains with those estimated using Marder PANSS factors.

The structures appear in SMILES notation.

Turning to `O=C1[C@@H]2[C@H]3CC[C@H](C3)[C@@H]2C(=O)N1C[C@@H]1CCCC[C@H]1CN1CCN(c2nsc3ccccc23)CC1` [lurasidone], the “effect size, Marder PANSS disorganized factor change score” value was 0.48; the “effect size, Marder PANSS factor change score compared with transformed anxiety factor” value is reported as 0.38; the “effect size, Marder PANSS factor change score compared with transformed depression factor” value was found to be 0.38; the “effect size, Marder PANSS hostility factor change score” value was determined as 0.43. The “effect size, Marder PANSS positive factor change score” value came out at 0.59; the “effect size, transformed PANSS anxiety factor change score” value was found to be 0.24; the “effect size, transformed PANSS depression factor change score” value worked out at 0.16; the “effect size, transformed PANSS disorganized factor change score” value was determined as 0.23. Further, the “effect size, transformed PANSS hostility factor change score” value turned out to be 0.31 and the “effect size, transformed PANSS positive factor change score” value is listed as 0.45. Also, for the setting “change score”, the “effect size, Marder negative symptom factor” value stood at 0.35; the “effect size, transformed PANSS negative symptoms deficit of expression” value was determined as 0.04; the “effect size, transformed PANSS negative symptoms of apathy/avolition” value was determined as 0.22.
